Assay results published in patent publication US8895605B2, “Pyrrolidine-substituted flavones as radio-sensitizers for use in the treatment of cancer” (Piramal Enterprises Limited, priority 2009, dated 2014).

Experiments:
[1] = tested on: Head and Neck carcinoma (FaDu) xenograft; test: In-vivo xenograft study, growth inhibition; details: FaDu xenograft in SCID mice
Excerpt: The assay can be carried out according to the method described in Clinical Cancer Research, 2003, 9, 6052-6061; the disclosure of which is incorporated by reference for the teaching of the assay. The in-vivo studies can be carried out by using Xenograft models in Severe combined immune deficiency (SCID) mice strain-CBySmn.CB17-Prkdc^scid/J, by the method described below. The statistically significant number of mice per group (n=6) is chosen in order to be able to statistically evaluate the study data. Six to eight weeks old SCID mice were used. Head and neck cancer cells are grown in MEM medium containing 10% fetal calf serum in 5% CO2 incubator at 37° C. Cells are pelleted by centrifugation at 1000 rpm for 10 minutes. […] Body weight for all the groups is recorded for the entire period. Tumor size and other signs of toxicity (external) is recorded every day. […] Tumor growth in compound treated animals is calculated as T/C (Treated/Control)×100% and growth inhibition percent (GI %) was [100−T/C %] […] Treatment is continued for 18 days as mentioned in study design. • Tumor weight in milligram is calculated using the formula for a prolate ellipsoid: Tumor weight (mg)=Length (mm)×[Breadth (mm)^2]×0.5 • Treated to control ratio (T/C %) on a given day is calculated using the formula: [formula] […]

FaDu cell line [2] = test: In-vitro clonogenic assay (Compound A alone and with radiation); type: cell-based, human; details: for Number of colonies 72 h after Compound A treatment / Number of colonies 96 h after Compound A treatment: 1500 cells/plate; for Number of colonies 72 h after Compound A treatment: control 138 colonies; for Number of colonies 96 h after Compound A treatment: control 185 colonies
Procedure: The assay has been carried out according to the method described in Radiotherapy and Oncology, 2004, 71, 213-221; the disclosure of which is incorporated by reference for the teaching of the assay. The Fa-Du cells from exponential phase cultures were harvested by trypsinization, counted and plated at a cell density of 1500 cells/well in six-well plate and four identical groups were made. First group served as control that was untreated. Different wells of the second and third group, 24 h after seeding were irradiated at room temperature at dose of 2, 4, 6, 8 and 10 Gy respectively. The third group was further treated, 24 h after irradiation (i.e. on the third day of the experiment) with IC50 concentration of Compound A. The fourth group was treated on the third day of the experiment with IC50 concentration of Compound A alone. After completion of 72 h and 96 h respectively, the medium was changed for all the wells and the plates incubated for a total period of 12-14 days from the first day of the experiment (i.e. the cell seeding day) to allow sufficient time for the cells to form colonies of at least 50 cells. The medium was aspirated and colonies were fixed with methanol and acetic acid mixture in the proportion of 2:1. The fixation procedure was repeated after rinsing with water. The plates were dried and colonies stained with 0.1% crystal violet for 5 min. The wells were finally rinsed with water and dried. […] FIG. 3 and FIG. 4 show the visual enhancement in the radiation response by 1 μM dose of Compound A, in FaDu cell line (Seeding density: 1500 cells/plate).

FaDu cell line [3] = test: as above; type: cell-based, human; details: 3500 cells/well, 1 μM Compound A for 48 h and 96 h; colonies could not be counted
[4] = 1 μM Compound A (IC50) alone, no radiation
[5] = 2 Gy radiation, then 1 μM Compound A 24 h after radiation
[6] = 4 Gy radiation, then 1 μM Compound A 24 h after radiation
[7] = 6 Gy radiation, then 1 μM Compound A 24 h after radiation
[8] = 8 Gy radiation, then 1 μM Compound A 24 h after radiation
[9] = 10 Gy radiation, then 1 μM Compound A 24 h after radiation

CN1CC[C@@H](c2c(O)cc(O)c3c(=O)cc(-c4ccccc4Cl)oc23)[C@@H]1CO.Cl [Compound A, (+)-trans-2-(2-Chlorophenyl)-5,7-dihydroxy-8-(2-hydroxymethyl-1-methyl-pyrrolidin-3-yl)-chromen-4-one hydrochloride]
Average % growth inhibition (% GI) with respect to control group ([1]; Only Compound A, 35 mpk i.p. everyday for 18 days): 42% | Average % growth inhibition (% GI) with respect to control group ([1]; Radiation (3 Gy twice weekly, total 15 Gy) + Compound A 35 mpk i.p. everyday for 18 days): 75% | Number of colonies 72 h after Compound A treatment (FaDu cell line [2]; [4]): 38 | Number of colonies 96 h after Compound A treatment (FaDu cell line [2]; [4]): 36 | Radiation response in clonogenic assay (FaDu cell line [2]; 1 μM Compound A for both 72 h and 96 h, at both 4 and 6 Gy, 1500 cells/well): enhanced the radiation response | Number of colonies 72 h after Compound A treatment (FaDu cell line [2]; [5]): 45 | Number of colonies 96 h after Compound A treatment (FaDu cell line [2]; [5]): 40 | Number of colonies 72 h after Compound A treatment (FaDu cell line [2]; [6]): 18 | Number of colonies 96 h after Compound A treatment (FaDu cell line [2]; [6]): 17 | Number of colonies 72 h after Compound A treatment (FaDu cell line [2]; [7]): 7 | Number of colonies 96 h after Compound A treatment (FaDu cell line [2]; [7]): 6 | Number of colonies 72 h after Compound A treatment (FaDu cell line [2]; [8]): 0 | Number of colonies 96 h after Compound A treatment (FaDu cell line [2]; [8]): 2 | Number of colonies 72 h after Compound A treatment (FaDu cell line [2]; [9]): 0 | Number of colonies 96 h after Compound A treatment (FaDu cell line [2]; [9]): 0 | Radiation response in clonogenic assay (visual) (FaDu cell line [3]): visual enhancement in radiation response
